Consider nine compounds from PubChem BioAssay AID2748 (The Scripps Research Institute Molecular Screening Center, 2010).

This experiment addresses Heat shock protein HSP 90-alpha (Homo sapiens) (UniProt P07900). Put plainly: HSP90 inhibitors, concentration-response – biochemical, luminescence, late-stage follow-up (AID 2748). The conditions noted are these: Hsp90 biochemical assay, luminescence read-out.

The IC50 is the concentration that inhibits the measured activity by half. Turning to `CC(=O)Nc1ccccc1OCC(=O)c1cc(C)n(Cc2cccs2)c1C`, the IC50 was 100 nM.
The result for `CCc1ccc(OCc2ccc(C(=O)OC)o2)cc1` reads 1030 nM; that for `Cc1cc(NO)nc(-c2ccc(Br)cc2)n1`, 871 nM.
The result for `Cc1c(-c2nc(-c3ccc(C(C)(C)C)cc3)no2)n(C)oc1=O` reads below 3 nM; that for `Cc1c(-c2nc(-c3ccc(C(F)(F)F)cc3)no2)n(C)oc1=O`, 1600 nM.
The result for `COc1cc(C=NNc2ccc(Cl)c(C(=O)O)c2)ccc1OC(=O)c1ccc(F)cc1` reads 1820 nM; that for `COc1ccccc1NC(=O)c1coc(=O)c(Br)c1`, 457 nM; that for `CCOC(=O)C1=C(c2ccc(OC)cc2)C(=O)c2ccccc2C1=O`, 308 nM.
For `CCOC(=O)c1csc(NC(=O)c2cc3ccccc3o2)n1`, the IC50 is 878 nM.
